In patent publication US20220154282A1, “DETECTION MEANS, COMPOSITIONS AND METHODS FOR MODULATING SYNOVIAL SARCOMA CELLS” (The Broad Institute, Inc., priority 2019, published 2022):

Test system: Aska and SYO1 SyS cell lines
Experiment: SS18-SSX knockdown (shSSX vs shCt) with scRNA-Seq readout
Assay type: cell-based, human
Text: To decouple the intrinsic and extrinsic factor determining the malignant cell states in SyS Applicants first tested whether the core oncogenic and other programs were co-regulated by the genetic fusion driving SyS. Applicants turned to explore the potential regulators of these cellular programs, starting from the genetic driver. To this end, they depleted SS18-SSX in two SyS cell lines (SYO1 and Aska) using shRNA and profiled 12,263 cells with scRNA-Seq. The fusion KD led to massive and highly consistent transcriptional alternation in both cell lines (FIG. 7A, Tables 8, 9). […] Leveraging the single-cell readout Applicants confirmed that the KD impact on the core oncogenic and differentiation programs was decoupled from, and not secondary to, the repression of cellular proliferation (FIG. 7B), such that the impact on the core oncogenic and differentiation programs was observed even when controlling for the cycling status of the cells, and when considering only cycling or non-cycling cells (P<1.54*10^−13, t-test, FIG. 5B, METHODS). Thus, the fusion's impact on cell cycle may be secondary or downstream to its impact on the core oncogenic program. In addition, the fusion KD led to an induction of antigen presentation and cell autonomous immune responses, such as TNF and IFN signaling (P<1*10^−30, mixed-effects, FIG. 8A).
The SyS cell lines Aska and SYO1 were cultured using standard protocols in DMEM medium (Gibco) supplemented with 10-20% fetal bovine serum, 1% Glutamax (Gibco), 1% Sodium Pyruvate (Gibco) and 1% Penicillin-Streptomycin (Gibco) and grown in a humidified incubator at 37° C. with 5% CO2. Cells expressing a pLKO.1 vector with a scrambled shRNA hairpin control (5′-[…] CTTAGG-3′) (SEQ ID NO: 5) or a shSSX hairpin targeting SSX of the SS18-SSX fusion (5′-[…]-3′) (SEQ ID NO: 6) were prepared by lentiviral infection. In brief, lentivirus was prepared by transfection of HEK293T cells with gene delivery vector and the packaging vectors pspax2 and pMD2.G, filtration of media followed by ultracentrifugation, and then resuspension of viral pellet in PBS. Aska and SYO1 cells were infected with lentivirus for 48 hours and then underwent 5 days of selection with puromycin (2 μg/mL) prior to collection for single cell RNA-seq analysis.
The fusion program consists of genes that were differentially expressed in the Aska or SYO1 cells with the SS18-SSX shRNA (shSSX) compared to those with control shRNA (shCt) after 3 or 7 days post-infection. Gene that were previously reported (35, 36) to be bound by the SS18-SSX oncoprotein in at least two SyS cell lines were defined as direct SS18-SSX targets, and were used to stratify the SS18-SSX program to direct and indirect targets.

[1] = SSX shRNA (shSSX) vs control shRNA (shCt), ASKA and SYO1 cells, scRNA-Seq

shSSX: shSSX hairpin targeting SSX of the SS18-SSX fusion (5′-CAGTCACTGACAGTTAATAAA-3′), pLKO.1 lentiviral vector
mesenchymal differentiation program [1]: induced
overall expression of the cell cycle program [1]: repressed
overall expression of the core oncogenic program [1]: repressed
immune responses (topmost differentially expressed pathways) (shSSX vs shCt, SyS cells stratified by cycling status): inducing multiple immune responses
